# Results as given in ChEMBL document CHEMBL1201862, “PubChem BioAssay data set” (2004).
#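 48-hour exposure; five concentrations; linearly interpolated endpoints. Here, GI50 denotes the concentration required for 50% inhibition of growth.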 Calls of active or inactive are those of the source. Rule as the data show it: active = GI50 up to about 1.1 µM and inactive = higher.
# Columns and labels:
# Assay in all cases: NCI tumour cell line growth inhibition, 48 h
# 786-0 = tested on: 786-0
# A498 = tested on: A498
# A549 = tested on: A549
# ACHN = tested on: ACHN
# CCRF-CEM = tested on: CCRF-CEM
# COLO 205 = tested on: COLO 205
# DU-145 = tested on: DU-145
# HCC 2998 = tested on: HCC 2998
# HCT-116 = tested on: HCT-116
# HCT-15 = tested on: HCT-15
# HL-60 = tested on: HL-60
# HOP-62 = tested on: HOP-62
# HOP-92 = tested on: HOP-92
# Hs-578T = tested on: Hs-578T
# K562 = tested on: K562
# LOX IMVI = tested on: LOX IMVI
# M14 = tested on: M14
# MCF7 = tested on: MCF7
# MDA-MB-231 = tested on: MDA-MB-231
# MDA-MB-435 = tested on: MDA-MB-435
# MDA-N = tested on: MDA-N
# MOLT-4 = tested on: MOLT-4
# NCI-H226 = tested on: NCI-H226
# NCI-H23 = tested on: NCI-H23
# NCI-H460 = tested on: NCI-H460
# NCI/ADR-RES = tested on: NCI/ADR-RES
# OVCAR-5 = tested on: OVCAR-5
# OVCAR-8 = tested on: OVCAR-8
# PC-3 = tested on: PC-3
# RPMI-8226 = tested on: RPMI-8226
# SF-268 = tested on: SF-268
# SF-539 = tested on: SF-539
# SK-MEL-28 = tested on: SK-MEL-28
# SK-MEL-2 = tested on: SK-MEL-2
# SK-MEL-5 = tested on: SK-MEL-5
# SK-OV-3 = tested on: SK-OV-3
# SN12C = tested on: SN12C
# SNB-19 = tested on: SNB-19
# SNB-75 = tested on: SNB-75
# SR = tested on: SR
# SW-620 = tested on: SW-620
# T47D = tested on: T47D
# TK-10 = tested on: TK-10
# U-251 = tested on: U-251
# UACC-62 = tested on: UACC-62
# UO-31 = tested on: UO-31
# BT-549 = tested on: BT-549
# EKVX = tested on: EKVX
# HT-29 = tested on: HT-29
# IGROV-1 = tested on: IGROV-1
# KM12 = tested on: KM12
# NCI-H522 = tested on: NCI-H522
# OVCAR-3 = tested on: OVCAR-3
# OVCAR-4 = tested on: OVCAR-4
# RXF 393 = tested on: RXF 393
# SF-295 = tested on: SF-295
# UACC-257 = tested on: UACC-257
# CAKI-1 = tested on: CAKI-1
# Malme-3M = tested on: Malme-3M
smiles,measurement,setting,value
Cc1ccc2nc(-c3ccc(-c4nc5ccc(C)cc5o4)c(O)c3)oc2c1,GI50,786-0,> 100 µM (inactive)
same,GI50,A498,> 100 µM (inactive)
same,GI50,A549,> 100 µM (inactive)
same,GI50,ACHN,> 100 µM (inactive)
same,GI50,CCRF-CEM,> 100 µM (inactive)
same,GI50,COLO 205,> 100 µM (inactive)
same,GI50,DU-145,> 100 µM (inactive)
same,GI50,HCC 2998,> 100 µM (inactive)
same,GI50,HCT-116,> 100 µM (inactive)
same,GI50,HCT-15,> 100 µM
same,GI50,HL-60,> 100 µM (inactive)
same,GI50,HOP-62,> 100 µM (inactive)
same,GI50,HOP-92,> 100 µM (inactive)
same,GI50,Hs-578T,> 100 µM (inactive)
same,GI50,K562,> 100 µM (inactive)
same,GI50,LOX IMVI,> 100 µM (inactive)
same,GI50,M14,> 100 µM (inactive)
same,GI50,MCF7,> 100 µM (inactive)
same,GI50,MDA-MB-231,> 100 µM (inactive)
same,GI50,MDA-MB-435,> 100 µM (inactive)
same,GI50,MDA-N,> 100 µM (inactive)
same,GI50,MOLT-4,> 100 µM (inactive)
same,GI50,NCI-H226,> 100 µM (inactive)
same,GI50,NCI-H23,> 100 µM (inactive)
same,GI50,NCI-H460,> 100 µM (inactive)
same,GI50,NCI/ADR-RES,> 100 µM (inactive)
same,GI50,OVCAR-5,> 100 µM (inactive)
same,GI50,OVCAR-8,> 100 µM (inactive)
same,GI50,PC-3,> 100 µM (inactive)
same,GI50,RPMI-8226,> 100 µM (inactive)
same,GI50,SF-268,> 100 µM (inactive)
same,GI50,SF-539,> 100 µM (inactive)
same,GI50,SK-MEL-28,> 100 µM (inactive)
same,GI50,SK-MEL-2,> 100 µM (inactive)
same,GI50,SK-MEL-5,> 100 µM (inactive)
same,GI50,SK-OV-3,> 100 µM (inactive)
same,GI50,SN12C,> 100 µM (inactive)
same,GI50,SNB-19,> 100 µM (inactive)
same,GI50,SNB-75,> 100 µM (inactive)
same,GI50,SR,> 100 µM (inactive)
same,GI50,SW-620,> 100 µM (inactive)
same,GI50,T47D,> 100 µM (inactive)
same,GI50,TK-10,> 100 µM (inactive)
same,GI50,U-251,> 100 µM (inactive)
same,GI50,UACC-62,> 100 µM (inactive)
same,GI50,UO-31,> 100 µM (inactive)
CCc1nnc(CC)n1-n1c(Cc2ccccc2)n[nH]c1=O,GI50,786-0,> 100 µM (inactive)
same,GI50,A549,> 100 µM (inactive)
same,GI50,ACHN,> 100 µM (inactive)
same,GI50,BT-549,> 100 µM (inactive)
same,GI50,CCRF-CEM,> 100 µM (inactive)
same,GI50,COLO 205,> 100 µM (inactive)
same,GI50,DU-145,> 100 µM (inactive)
same,GI50,EKVX,> 100 µM (inactive)
same,GI50,HCC 2998,> 100 µM (inactive)
same,GI50,HCT-116,> 100 µM (inactive)
same,GI50,HCT-15,> 100 µM
same,GI50,HOP-62,> 100 µM (inactive)
same,GI50,HOP-92,> 100 µM (inactive)
same,GI50,HT-29,> 100 µM (inactive)
same,GI50,IGROV-1,> 100 µM (inactive)
same,GI50,K562,> 100 µM (inactive)
same,GI50,KM12,> 100 µM (inactive)
same,GI50,LOX IMVI,> 100 µM (inactive)
same,GI50,M14,> 100 µM (inactive)
same,GI50,MCF7,> 100 µM (inactive)
same,GI50,MDA-MB-231,> 100 µM (inactive)
same,GI50,MDA-MB-435,> 100 µM (inactive)
same,GI50,MDA-N,> 100 µM (inactive)
same,GI50,MOLT-4,> 100 µM (inactive)
same,GI50,NCI-H23,> 100 µM (inactive)
same,GI50,NCI-H522,> 100 µM (inactive)
same,GI50,NCI/ADR-RES,> 100 µM (inactive)
same,GI50,OVCAR-3,> 100 µM (inactive)
same,GI50,OVCAR-4,> 100 µM (inactive)
same,GI50,OVCAR-5,> 100 µM (inactive)
same,GI50,OVCAR-8,> 100 µM (inactive)
same,GI50,PC-3,> 100 µM (inactive)
same,GI50,RPMI-8226,> 100 µM (inactive)
same,GI50,RXF 393,> 100 µM (inactive)
same,GI50,SF-268,> 100 µM (inactive)
same,GI50,SF-295,> 100 µM (inactive)
same,GI50,SF-539,> 100 µM (inactive)
same,GI50,SK-MEL-28,> 100 µM (inactive)
same,GI50,SK-MEL-2,> 100 µM (inactive)
same,GI50,SK-MEL-5,> 100 µM (inactive)
same,GI50,SK-OV-3,> 100 µM (inactive)
same,GI50,SN12C,> 100 µM (inactive)
same,GI50,SNB-19,> 100 µM (inactive)
same,GI50,SNB-75,> 100 µM (inactive)
same,GI50,SR,> 100 µM (inactive)
same,GI50,SW-620,> 100 µM (inactive)
same,GI50,TK-10,> 100 µM (inactive)
same,GI50,U-251,> 100 µM (inactive)
same,GI50,UACC-257,> 100 µM (inactive)
same,GI50,UACC-62,> 100 µM (inactive)
same,GI50,UO-31,> 100 µM (inactive)
CC1=C(C)CC2(C=C(C(C)(C)C)C(=O)C(C(C)(C)C)=C2)SC1,GI50,786-0,17.9 µM (inactive)
same,GI50,A498,17.5 µM (inactive)
same,GI50,A549,21.9 µM (inactive)
same,GI50,CAKI-1,21.5 µM (inactive)
same,GI50,CCRF-CEM,19.8 µM (inactive)
same,GI50,COLO 205,17.6 µM (inactive)
same,GI50,DU-145,39.3 µM (inactive)
same,GI50,EKVX,18.6 µM (inactive)
same,GI50,HCT-116,28.4 µM (inactive)
same,GI50,HL-60,18.3 µM (inactive)
same,GI50,HOP-62,19.3 µM (inactive)
same,GI50,HOP-92,19.2 µM (inactive)
same,GI50,HT-29,19.9 µM (inactive)
same,GI50,Hs-578T,16.9 µM (inactive)
same,GI50,IGROV-1,13.9 µM (inactive)
same,GI50,K562,30.3 µM (inactive)
same,GI50,KM12,19.1 µM (inactive)
same,GI50,LOX IMVI,17.4 µM (inactive)
same,GI50,M14,24.7 µM (inactive)
same,GI50,MCF7,15.6 µM (inactive)
same,GI50,MDA-MB-231,14.3 µM (inactive)
same,GI50,MDA-MB-435,19.5 µM (inactive)
same,GI50,MDA-N,27.2 µM (inactive)
same,GI50,MOLT-4,27.4 µM (inactive)
same,GI50,Malme-3M,14.2 µM (inactive)
same,GI50,NCI-H226,17 µM (inactive)
same,GI50,NCI-H23,18.5 µM (inactive)
same,GI50,NCI-H460,27 µM (inactive)
same,GI50,NCI-H522,1.91 µM (inactive)
same,GI50,NCI/ADR-RES,19.1 µM (inactive)
same,GI50,OVCAR-3,17.9 µM (inactive)
same,GI50,OVCAR-4,26.7 µM (inactive)
same,GI50,OVCAR-5,20.1 µM (inactive)
same,GI50,PC-3,26.7 µM (inactive)
same,GI50,RPMI-8226,12.8 µM (inactive)
same,GI50,RXF 393,18.5 µM (inactive)
same,GI50,SF-268,19.5 µM (inactive)
same,GI50,SF-295,16 µM (inactive)
same,GI50,SF-539,18.3 µM (inactive)
same,GI50,SK-MEL-2,12.3 µM (inactive)
same,GI50,SK-MEL-5,13.2 µM (inactive)
same,GI50,SK-OV-3,25 µM (inactive)
same,GI50,SN12C,17.4 µM (inactive)
same,GI50,SNB-19,17.3 µM (inactive)
same,GI50,SNB-75,16.1 µM (inactive)
same,GI50,SR,26.5 µM (inactive)
same,GI50,SW-620,18.2 µM (inactive)
same,GI50,T47D,27.9 µM (inactive)
same,GI50,TK-10,18.6 µM (inactive)
same,GI50,U-251,15.6 µM (inactive)
same,GI50,UACC-257,26.6 µM (inactive)
same,GI50,UACC-62,29.2 µM (inactive)
same,GI50,UO-31,15.7 µM (inactive)
